# In patent US20200360466A1, “METHOD OF IMPROVING LOWER URINARY TRACT SYMPTOMS” (Nymox Corporation, priority 2019, published 2020):
# Where no end group is shown, it is not given here.
# Key:
# Assay type in all cases: in vivo, human
# [1] = tested on: patients with BPH who optionally also had LUTS; test: IPSS symptom evaluation after a single intraprostatic injection of FT or PBS, double-blind (Example One)
# Experimental: Patients with BPH and who optionally also had LUTS were given an intraprostatic injection of either a) FT (SEQ ID NO. 1 (Ile-Asp-Gln-Gln-Val-Leu-Ser-Arg-Ile-Lys-Leu-Glu-Ile-Lys-Arg-Cys-Leu), 2.5 mg) in phosphate buffered saline pH 7.2 (“PBS”) or b) PBS alone, under double-blind conditions by a urologist in an office setting under ultrasound guidance. Patients were followed for 1 to 6 years with regular physical examinations, laboratory tests, and evaluations of symptoms. Symptomatic evaluation was measured by the International Prostate Symptom Score (IPSS) which is a quantitative scale used to gauge prostatic symptomatic improvement or worsening. The IPSS quantifies the following: 1) incomplete bladder emptying after urination; 2) frequent urination; 3) stopping and starting during urination; 4) urgent need to urinate; 5) weakness of urinary stream; 6) need to push or strain during urination; 7) need to urinate after going to sleep at night (nocturia).
# IPSS items 1, 3, 5 and 6 comprise the obstructive voiding scales and IPSS items 2, 4, and 7 comprise the irritative storage scales. The difference from baseline irritative storage scores to follow-up scores; and from baseline obstructive voiding scores to follow-up scores were calculated in FT treated subjects and Placebo treated controls.
# [2] = tested on: patients with BPH who also optionally had LUTS; test: IPSS obstructive voiding scores after placebo injection followed by cross-over FT injection (Example Three)
# Excerpt: In a third analysis group, patients with BPH who also optionally had LUTS were given an intraprostatic injection of PBS pH 7.2 vehicle alone, under double-blind conditions by a urologist in an office setting under ultrasound guidance. Patients were followed for 1 to 3 years with regular physical examinations, laboratory tests, and evaluations of symptoms. 131 patients who received PBS vehicle alone injections after 1-3 years received a cross-over injection of FT (SEQ ID NO. 1 (Ile-Asp-Gln-Gln-Val-Leu-Ser-Arg-Ile-Lys-Leu-Glu-Ile-Lys-Arg-Cys-Leu), 2.5 mg) in phosphate buffered saline pH 7.2 (“PBS”). The differences from baseline obstructive voiding scores to follow-up scores were calculated in blinded placebo treated patients (Group One); blinded placebo treated patients who received subsequent conventional oral BPH medications (Group Two), and blinded placebo treated patients who subsequently received FT treatment (Group Three).
# [3] = tested on: patients with BPH who also optionally had LUTS; test: IPSS obstructive voiding scores in all patients who received FT versus placebo alone (Example Four); conditions: Table 4, all FT-treated patients vs placebo alone
# Excerpt: In a fourth analysis group, patients with BPH who also optionally had LUTS were given an intraprostatic injection of PBS pH 7.2 vehicle alone or of FT, under double-blind conditions by a urologist in an office setting under ultrasound guidance. Patients were followed for 1 to 3 years with regular physical examinations, laboratory tests, and evaluations of symptoms. 217 patients received double blind placebo alone (Group One). 287 patients received double blind FT alone (Group Two). After 1-3 years, 131 patients who received PBS vehicle alone injections received a cross-over injection of FT (Group Three). The final group of 189 patients received blinded FT followed after 1-3 years by a second injection of FT (Group Four). The difference from baseline obstructive voiding scores to follow-up scores were calculated in blinded placebo treated patients (n=217), and compared to groups 2-4 who received FT treatment (n=607).
# [4] = Table 1, single FT injection vs PBS control
# [5] = general statement in the description
substance,measurement,setting,value
"Ile-Asp-Gln-Gln-Val-Leu-Ser-Arg-Ile-Lys-Leu-Glu-Ile-Lys-Arg-Cys-Leu (IDQQVLSRIKLEIKRCL; also: trifluoroacetate salt) [SEQ ID NO: 1-FT, 17-mer peptide …]",improvement in MISS measured by IPSS compared to control composition that does not contain FT,[1]; [4],more than 34%
same,improvement in MOVS measured by IPSS compared to control composition that does not contain FT,[1]; [4],more than 46%
same,improvement in MISS measured by IPSS compared to control composition that does not contain FT,[1]; [5],more than 20%
same,improvement in MOVS measured by IPSS compared to control composition that does not contain FT,[1]; [5],more than 30%
same,improvement in MOVS measured by IPSS compared to placebo control followed by conventional oral BPH medication,"[2]; Table 3, cross-over FT injection",more than 320%
same,improvement in MOVS measured by IPSS compared to control composition that does not contain FT,"[2]; Table 3, cross-over FT injection vs placebo alone",more than 104%
same,improvement in MOVS measured by IPSS compared to control composition that does not contain FT,[3],more than 105%
